According to US20180271847A1, “TREATMENT OF ACUTE TRAUMATIC INJURY” (priority 2015, published 2018):

Assays:
[1] = test system: contusion injury to the spinal cord; test: Lesion volume 3 days after spinal cord contusion injury; type: in vivo; details: rats with spinal cord contusion, sacrificed 3 days after injury
Description: FIG. 7 is a graph showing the unexpected ability of 4-AP to modulate outcomes of traumatic injury that are of relevance to the injury in all tissues of the body is the ability to decrease lesion size. In these experiments, rats received identical injuries as discussed in Example 1, except that these rats were sacrificed 3 days after injury. Lesion size, in cubic millimeters (mm^3) was calculated by imaging collected tissue sections covering the full dimensions of the injury using Stereolnvestigator and contours were traced to cover the region of the tissue in which damage was apparent. All slides were measured by a blinded individual. Lesion volume was thus determined. […]
Still another example of the unexpected ability of 4-AP to modulate outcomes of traumatic injury that are of relevance to such injury in all tissues of the body is the ability to decrease lesion size. […] Lesion size, in cubic millimeters (mm^3) was calculated by imaging collected tissue sections covering the full dimensions of the injury using Stereolnvestigator and contours were traced to cover the region of the tissue in which damage was apparent. All slides were measured by a blinded individual. Lesion volume was thus determined.

lipofuscin = test: Auto-fluorescence / lipofuscin accumulation after spinal cord contusion injury; type: in vivo; details: rats with contusion injuries to the spinal cord
Description: 4-aminopyridine administration decreases auto-fluorescence following contusion injury to the spinal cord. One of the responses to tissue injury in a broad variety of tissues is the accumulation of substances that may be given the general name of lipofuscin, a name given to lipid-containing residues of lysosomal digestion. This pigment is thought to be the product of oxidation of unsaturated fatty acids and is considered indicative of membrane damage of a nature that occurs widely in tissue injury, a variety of diseases and in aging. Lipofuscin is most readily observed as an auto-fluorescent component of tissue that is seen when tissue is excited with a wide range of […] wavelengths normally used for studying fluorescently labeled proteins, such as antibodies, that are widely used in studying all of the tissues of the body. Lipofuscin accumulation has been reported for cell types of a wide range of tissues, particularly after injury, including liver, kidney, heart muscle, retina, adrenal gland, nerve cells, and red-blood cells, in post-traumatic arthritis and in other tissues.
This is another wholly unexpected ability of 4-AP to beneficially modulate an outcome of traumatic injury that is applicable to a wide range of different tissues.

skeletal muscle atrophy [2] = test: Skeletal muscle atrophy after sciatic nerve crush injury; type: in vivo, mouse
Description: FIGS. 10A-10F show the rescue of skeletal muscle from atrophy induced by crush injury to the sciatic nerve by daily administration of clinically relevant dosages of 4-AP.
These stem cells are believed to play roles in preventing and/or repairing muscle atrophy.
In particular, 4-AP was applied as a means of preventing skeletal muscle atrophy following damage to the nerve innervating muscles of limb, as illustrated in FIG. 10. In these experiments, the sciatic nerve of the mouse was crushed in such a manner that not all axons were severed. In these injuries, skeletal muscle atrophy is a significant consequence, just as it is in patients with similar injuries. This type of injury can be a problem for many reasons, including the fact that if atrophy is not stopped or reversed within a relatively short period of time, the damage done may become irreversible.

[3] = test system: traumatic damage to the peripheral nervous system; test: Recovery of function after traumatic damage to the peripheral nervous system; type: in vivo; details: following traumatic damage to the peripheral nervous system
[4] = test system: contusion injuries to the spinal cord; test: Behavioral analysis of motor function after spinal cord contusion injury; type: in vivo, Long Evans rats; details: rats
Description: Experiments were initiated with behavioral analysis of rats receiving contusion injuries to the spinal cord, which is one of the most widely studied of all experimental models of traumatic injury. 8-10 week old Long Evans rats (female) underwent laminectomy at thoracic vertebrae 9 and a 200 kilodyne impact was delivered to the spinal cord using an the Infinite Horizons impactor. Animals were allowed to recover on a heated pad and then treatment was started 24 hours after surgery in order to determine whether a clinically useful window of opportunity for initiation of treatment exists for use of this intervention. Animals received 1 mg/kg 4-AP twice a day for seven days, then received 1 mg/kg 4-AP […] for the following seven days. After two weeks, the animals were taken off 4-AP entirely and allowed to continue for 2 weeks to test for stability of recovery.
FIGS. 1-4 provide evidence of enhanced recovery of a variety of aspects of motor function. […] Of particular interest were observations that when rats were switched to once-a-day administration of 4-AP and all behavioral analyses were conducted at a time point when the 4-AP half-life in rats predicts that levels in vivo were far below those necessary to observe any effects on motor function, recovery of function was still seen at a time when active levels of 4-AP would not have been present. […] FIG. 2 provides information on the speed of the paw during its swing movement (i.e., stride length/swing time). […] FIG. 3 provides information on the distance between the outer toes (i.e., toe spread), a sensitive indicator of normal motor function in the foot itself. […] In contrast, rats treated with 4-AP show normal behavior beginning 10 days post-injury, and this behavior is maintained when drug treatment ends at day 14. FIG. 4 provides information on the length of the foot print, a sensitive indicator of normal motor function in the foot itself. […] In contrast, rats treated with 4-AP show normal behavior beginning 10 days post-injury, and this behavior is maintained when drug treatment ends at day 14. All improvements were durable when treatment was stopped at 2 weeks post-injury.

skeletal muscle atrophy [5] = test: Skeletal muscle atrophy after complete denervation (nerve transection); type: in vivo
Description: Treatment with 4AP decreased muscle expression of MuRF-1 (FIG. 11A) and myogenin (FIG. 11B) (both normalized to GADPH) after complete denervation. […] Thus, the beneficial effects of 4AP on parameters of atrophy were not dependent on restoration of normal motor usage. *=p<0.05; ** p<0.01.
In this example, the nerve innovating the extensor digitorum longus muscle was completely transected 15-25 mm distant from the muscle. 4-AP was then administered during the acute and subacute post-injury periods.

[6] = mouse, sciatic nerve crush injury
[7] = spinal cord contusion, 1 mg/kg 4-AP for 14 days, maintained after treatment ends at day 14
[8] = after complete denervation, daily 4-AP

`Nc1ccncc1` [4-AP, 4-aminopyridine] was tested, and the “lesion size (lesion volume)” value [1] was “greatly decreasing lesion size”, the “lipofuscin accumulation (tissue auto-fluorescence)” value (lipofuscin) was “little evidence of lipofuscin accumulation” and the “numbers of Pax7+ muscle stem cells” value (skeletal muscle atrophy [2]; both at 7 days and 14 days post nerve crush injury) was “increased the numbers of Pax7+ cells”. The muscle strength (skeletal muscle atrophy [2]; mice, 7 days after nerve crush injury, daily 4-AP) was “greater muscle strength as compared with saline-treated mice”, the “expression of MuRF-1 in muscle” value (skeletal muscle atrophy [2]; [6]) was “decreases expression of MuRF-1” and the “expression of myogenin in muscle” value (skeletal muscle atrophy [2]; [6]) was “decreases expression of myogenin”. The “muscle atrophy judged by cross-sectional size of muscle” value (skeletal muscle atrophy [2]; mouse, sciatic nerve crush injury, daily 4-AP) was “decreases muscle atrophy”, the “recovery of motor function and electrophysiological function” value [3] was “more rapid recovery of motor function and electrophysiological function” and the “Basso, Beattie and Bresnahan (BBB) scores, recovery versus placebo (saline)” value ([4]; 200 kilodyne contusion at thoracic vertebrae 9, 1 mg/kg 4-AP twice a day for seven days then seven further days, started 24 hours after surgery) was “significant improvement over placebo (saline) treated rats as early as 3 days after treatment”. The “length of the foot print: normal behavior beginning” value [4, 7] was 10 days post-injury, the “toe spread (distance between the outer toes): normal behavior beginning” value [4, 7] was 10 days post-injury and the “return to normal swing speed (stride length/swing time)” value ([4]; spinal cord contusion, 1 mg/kg 4-AP for 14 days, normal defined by sham surgery group, maintained after treatment ends at day 14) was no more than 10 days post-injury. For the same compound, the “motor function after treatment was stopped 14 days after injury” value ([4]; spinal cord contusion, 1 mg/kg 4-AP for 14 days, through the rest of the 28 days of analysis) was “durable improvements in motor function”, the “muscle expression of MuRF-1 (normalized to GADPH)” value (skeletal muscle atrophy [5]; [8]) was “decreased” and the “muscle expression of myogenin (normalized to GADPH)” value (skeletal muscle atrophy [5]; [8]) was “decreased”. The “recovery of gait function” value (skeletal muscle atrophy [5]; denervated animals) was “did not show any recovery of gait function”.
